Test results as given in patent publication US9199975B2, “Biaryl imidazole derivatives for regulating CYP17” (Asana Biosciences, LLC, priority 2011, dated 2015).

Columns and labels:
[1] = molecular target: T1, rat CYP17 (Rattus norvegicus, UniProt P11715); test: CYP17 inhibition assay in rat testicular microsomes; type: biochemical; conditions: 3H3-17α-hydroxypregnenolone substrate, 60 minutes at 37° C.
T1 construct: Rat testis tissue was collected and disrupted with 30 strokes of a glass homogenizer; from tissue; host or cells: rat testis (microsomal fraction)
T1 sequence (P11715 1-507): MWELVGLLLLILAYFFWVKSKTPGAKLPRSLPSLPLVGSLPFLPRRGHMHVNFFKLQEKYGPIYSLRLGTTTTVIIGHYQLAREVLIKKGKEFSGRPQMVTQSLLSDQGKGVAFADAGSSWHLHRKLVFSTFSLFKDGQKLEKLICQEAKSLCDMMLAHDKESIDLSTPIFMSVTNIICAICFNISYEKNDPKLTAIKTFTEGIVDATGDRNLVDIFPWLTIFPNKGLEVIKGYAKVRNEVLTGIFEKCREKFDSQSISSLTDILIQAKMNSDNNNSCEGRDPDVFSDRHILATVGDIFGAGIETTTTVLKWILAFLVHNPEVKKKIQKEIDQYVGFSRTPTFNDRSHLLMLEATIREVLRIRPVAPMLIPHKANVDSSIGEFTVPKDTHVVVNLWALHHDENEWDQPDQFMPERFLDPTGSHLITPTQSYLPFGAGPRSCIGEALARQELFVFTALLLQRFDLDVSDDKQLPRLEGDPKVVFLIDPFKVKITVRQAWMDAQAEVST
Protocol: (§1) CYP17 Inhibition Assay in Rat Testicular Microsomes (Rat CYP17) or Yeast Microsome Overexpressing Human CYP17
(§2) A. Materials • 1. NADPH (Sigma): A working stock was prepared by adding 25 μL of 6.5 mM NADPH in each tube. The final concentration of NADPH used in the assay was 325 μM. • 2. Potassium Phosphate Buffer: One molar (1M) solutions of K2HPO4 and KH2PO4 were prepared. Eight mL of the 1 M KH2PO4 and 1.98 mL of the 1 M K2HPO4 were combined and the pH was adjusted to 7.4. • 3. ^3H3-17α-hydroxypregnenolone (American Radiolabeled Chemicals, Inc., stock 1 μCi/μL): A 1:1 dilution of ^3H3-17α-hydroxypregnenolone in ethanol was prepared by combining 100 μL ^3H3-17α-hydroxypregnenolone+100 μL ethanol for one complete 96 well plate. For the reaction, 2 μL of the diluted ^3H3-17α-hydroxypregnenolone was added in each tube, i.e., 1 μCi/reaction. • 4. Microsome Isolation Buffer: The microsome isolation buffer was prepared by combining 250 mM Sucrose, 5 mM EDTA, 10 mM Tris HCl, 4 mM DTT, and adjusting to pH 7.4. • 5. TEG Buffer: The TEG buffer was prepared by combining 50 mM Tris HCl, 1 mM EDTA, and 20% Glycerol. • 6. Rat Testicular Microsomes: Rat testis tissue was collected and disrupted with 30 strokes of a glass homogenizer on ice with 250 μL of microsome isolation buffer, followed by centrifugation at 10,000 g for 10 minutes at 4° C. The supernatant was collected and centrifuged at 100,000 g for 45 minutes at 4° C. The pellet was dissolved in TEG Buffer and the protein was quantified. The homogenized microsome samples were then frozen at −80° C. • 7. Yeast Microsomes which overexpress the human CYP17 enzyme were obtained from Premas Biotech, India.
(§3) Potassium phosphate buffer (470 μL) was prepared as described above and was added to each well of a deep well plate. The test compound was diluted using a TECAN liquid handler and 5 μL of diluted compound was transferred to each well (96 deep well/1 mL). A solution (25 μL) of 6.5 mM NADPH was added (final concentration of 325 µM in the assay). ^3H3-17α-hydroxypregnenolone (2 μL of the working stock) was added to each tube. The plates were then pre-incubated for 15 minutes at 37° C. Following the pre-incubation, either 5 μL rat testicular microsomes (150-160 μg) or 5 μL of yeast microsomes expressing human CYP17 (1.7 pmol), was added. Incubation was at 37° C. for 60 minutes in the presence of oxygen. The plates were then placed in ice and chloroform (500 μL) was added, mixed well and incubated at 4° C. for 20 minutes. The plates were then centrifuged at 1000 rpm for 15 minutes at 4° C.
(§4) A portion (300 μL) of the aqueous solution was collected and mixed with a 5% aqueous suspension of activated charcoal (300 μL). The plates were then incubated at 4° C. for 30 minutes, after which the plates were centrifuged at 1000 rpm for 15 minutes at 4° C. From this, 125 μL of the aqueous solution was collected and plated into a 96 well plate. Microscint™ 40 [125 μL, Perkin-Elmer; containing a mixture of a polymer based on alkylphenolethoxylate (20-40%), diethanolamine-phosphoric acid ester ammonium salt (10-20%), sodium dioctyl sulphosuccinate (2.5-10%), triethyl phosphate (2.5-10%), 3,6-dimethyl-4-octyne-3,6-diol (≦2.5%), a polymer based on nonylphenolethoxylate (≦2.5%), diisopropyl naphthalene isomers (40-60%), 2,5-diphenyloxazole (≦2.5%), and 9,10-dimethylanthracene] was added and mixed well. After 30 minutes of incubation, the samples were analyzed with a MicroBeta® Trilux microplate liquid scintillation counter and luminometer (Perkin-Elmer).

[2] = molecular target: T2, human CYP17 (Homo sapiens, UniProt P05093); test: CYP17 inhibition assay in yeast microsomes overexpressing human CYP17; type: biochemical; conditions: yeast microsomes expressing human CYP17, 3H3-17α-hydroxypregnenolone substrate, 60 minutes at 37° C.
T2 sequence (P05093 1-508): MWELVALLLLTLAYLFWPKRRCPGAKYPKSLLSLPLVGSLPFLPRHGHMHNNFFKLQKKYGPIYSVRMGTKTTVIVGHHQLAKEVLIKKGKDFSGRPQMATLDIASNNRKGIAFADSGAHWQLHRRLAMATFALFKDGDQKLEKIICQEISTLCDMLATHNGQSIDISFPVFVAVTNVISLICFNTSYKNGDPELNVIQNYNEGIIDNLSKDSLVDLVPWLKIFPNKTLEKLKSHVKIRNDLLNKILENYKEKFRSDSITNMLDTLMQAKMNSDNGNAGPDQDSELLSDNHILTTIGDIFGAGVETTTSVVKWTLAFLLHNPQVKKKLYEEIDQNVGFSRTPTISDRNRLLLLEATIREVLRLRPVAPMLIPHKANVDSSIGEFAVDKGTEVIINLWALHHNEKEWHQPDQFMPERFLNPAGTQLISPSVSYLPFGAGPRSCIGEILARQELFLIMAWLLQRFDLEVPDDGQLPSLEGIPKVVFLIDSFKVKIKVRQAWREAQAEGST
Protocol: as §1, §2, §3, §4

Row | SMILES | IC50 [1] [nM] | IC50 [2] [nM]
1 | CCC(c1ccc(-c2cccc(OC)c2)cn1)n1ccnc1 (centres unmarked) [Example 7, 2-(1-(1H-imidazol-1-yl)propyl)-5-(3-methoxyphenyl)pyridine] | < 50 | < 50
2 | CCC(c1ccc(-c2cccc(O)c2)cn1)n1ccnc1 (centres unmarked) [Example 8, 3-(6-(1-(1H-imidazol-1-yl)propyl)pyridin-3-yl)phenol] | < 50 | < 50
3 | CC(c1ccc(-c2ccc(=O)n(C)c2)s1)n1ccnc1 (centres unmarked) [Example 20, 5-(5-(1-(1H-imidazol-1-yl)ethyl)thiophen-2-yl)-1-methylpyridin-2(1H)-one] | < 50 | 201 to 10000
4 | COc1ccc(-c2ccc(C(C)(C)n3ccnc3)s2)cc1 [Example 24, 1-(2-(5-(4-methoxyphenyl)-thiophen-2-yl)-propan-2-yl)-1H-imidazole] | < 50 | 50 to 200
5 | CCC(c1ccc(-c2ccc(OC)cc2)o1)n1ccnc1 (centres unmarked) [Example 27, 1-{1-[5-(4-Methoxy-phenyl)-furan-2-y]-propyl}-1H-imidazole] | < 50 | < 50
6 | CC(c1cnc(-c2ccc(F)cc2F)s1)n1ccnc1 (centres unmarked) [Example 28, 2-(2,4-Difluoro-phenyl)-5-(1-imidazol-1-yl-ethyl)-thiazole] | < 50 | 50 to 200
7 | CCC(c1ccc(-c2ccc(O)cc2)o1)n1ccnc1 (centres unmarked) [Example 30, 4-[5-(1-Imidazol-1-yl-propyl)-furan-2-yl]-phenol] | < 50 | < 50
8 | CCC(c1cnc(-c2ccc(OC)cc2)s1)n1ccnc1 (centres unmarked) [Example 35, 5-(1-Imidazol-1-yl-propyl)-2-(4-methoxy-phenyl)-thiazole] | < 50 | 201 to 10000
9 | CCC(c1ccc(-c2ccccc2O)cn1)n1ccnc1 (centres unmarked) [Example 37, 2-[6-(1-Imidazol-1-yl-propyl)-pyridin-3-yl]-phenol] | < 50 | 50 to 200
10 | CCC(c1cccc(-c2ccc(OC)cc2)n1)n1ccnc1 (centres unmarked) [Example 38, 2-(1-Imidazol-1-yl-propyl)-6-(4-methoxy-phenyl) pyridine] | < 50 | 201 to 10000
11 | CCC(c1ccc(-c2ccc(OC)cc2)cn1)n1ccnc1 (centres unmarked) [Example 47, 2-(1-Imidazol-1-yl-propyl)-5-(4-methoxy-phenyl)-pyridine] | < 50 | 201 to 10000
12 | CC(c1ccc(-c2ccc(O)cc2)s1)n1ccnc1 (centres unmarked) [Example 49, 4-[5-(1-Imidazol-1-yl-ethyl)-thiophen-2-yl]-phenol] | < 50 | 50 to 200
13 | CCC(c1ccc(-c2ccc(O)cc2)cn1)n1ccnc1 (centres unmarked) [Example 50, 4-[6-(1-Imidazol-1-yl-propyl)-pyridin-3-yl]-phenol] | < 50 | < 50
14 | CCC(c1ccc(-c2ccccc2OC)cn1)n1ccnc1 (centres unmarked) [Example 56, 2-(1-Imidazol-1-yl-propyl)-5-(2-methoxy-phenyl)-pyridine] | < 50 | 201 to 10000
15 | COc1ccc(-c2ncc(C(C)n3ccnc3)s2)cn1 (centres unmarked) [Example 58, 5-[5-(1-Imidazol-1-yl-ethyl)-thiazol-2-yl]-2-methoxy-pyridine] | 50 to 200 | 
16 | CCC(c1cnc(-c2ccc(=O)[nH]c2)s1)n1ccnc1 (centres unmarked) [Example 59, 5-[5-(1-Imidazol-1-yl-propyl)-thiazol-2-yl]-1H-pyridin-2-one] | 50 to 200 | 
17 | CCC(c1cnc(-c2ccc(O)cc2)s1)n1ccnc1 (centres unmarked) [Example 60, 4-[5-(1-Imidazol-1-yl-propyl)-thiazol-2-yl]-phenol] | 50 to 200 | 201 to 10000
18 | COc1ccc(-c2ccc(C(C)(C)n3ccnc3)nc2)cc1 [Example 61, 2-(1-Imidazol-1-yl-1-methyl-ethyl)-5-(4-methoxy-phenyl)-pyridine] | 50 to 200 | 
19 | COc1ccc(-c2ccc(C(CC(C)C)n3ccnc3)nc2)cc1 (centres unmarked) [Example 62, 2-(1-Imidazol-1-yl-3-methyl-butyl)-5-(4-methoxy-phenyl)-pyridine] | 50 to 200 | 
20 | CC(c1cnc(-c2ccc(=O)[nH]c2)s1)n1ccnc1 (centres unmarked) [Example 63, 5-[5-(1-Imidazol-1-yl-ethyl)-thiazol-2-yl]-1H-pyridin-2-one] | 201 to 10000 | 
21 | CC(=O)Nc1ccc(-c2ccc(C(C)n3ccnc3)nc2)cc1 (centres unmarked) [Example 64, N-{4-[6-(1-Imidazol-1-yl-ethyl)-pyridin-3-yl]-phenyl}-acetamide] | 201 to 10000 | 
22 | CC(c1cnc(-c2ccc(C(=O)O)cc2)s1)n1ccnc1 (centres unmarked) [Example 65, 4-[5-(1-Imidazol-1-yl-ethyl)-thiazol-2-yl]-benzoic acid] | 201 to 10000 | 
23 | COc1ccc(-c2cccnc2C(C)n2ccnc2)cc1 (centres unmarked) [Example 66, 2-(1-(1H-imidazol-1-yl)ethyl)-3-(4-methoxyphenyl)-pyridine] | 50 to 200 | 
